# Source: PubChem BioAssay AID743394 (Broad Institute, 2014)
# Several values for one entry are separate records, joined by “and”; a condition that tells them apart may be missing. Equal values may be shown once. Activity calls are given as the source filed them.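 The calls were made as follows: active = 40% activation versus positive control reached by fitted dose-response curve at or below highest valid tested dose; inconclusive = poor fit quality, or flat fit with activation between 30% and 70%; inactive = the rest.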
# Test system: 68-5-11 mouse fibroblast XiGFP reporter, % GFP-positive imaging, 3 d
# Assay: inactive X chromosome reactivation in XiGFP fibroblasts, dose response, imaging, 68-5-11 mouse fibroblasts, GFP, cherry-pick (AID 743394);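 also: sensitizer 5-aza-dC present in the wells at 0.5 mM final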
# [1] = cells co-treated with 5-aza-dC sensitizer
SMILES,AC40 [1],AC40
COc1ccccc1-[n+]1c(C)cc(/C=C2\Sc3ccccc3N2C)cc1C,0.249 µM,
CC(C)(C)NC(=S)N/N=C\c1ccc(-c2ccc([N+](=O)[O-])cc2)o1,5.94 µM,
CCCCN(C)C1=CC2=CC(=C(C#N)C#N)CCC2CC1 (stereo not drawn),2.86 µM,
Cc1ccc(S(=O)(=O)N2CC3(O)CN(C(=O)OC(C)C)N(C(=O)OC(C)C)CC3(OC(=O)NCc3ccccc3)C2)cc1 (stereo not drawn),13.8 µM,
F[B-](F)(F)c1cnc2ccccc2c1,> 6.8 µM (inactive),
COc1ccc(C(=O)c2sc3nc(C)cc(-c4cccs4)c3c2N)cc1,7.57 µM,
COC1=CC(=O)c2c(ccc3ncnc(N)c23)C1=O,9.69 µM,
COc1ccccc1N1N=C(c2ccc([N+](=O)[O-])cc2)CC1c1ccccc1 (stereo not drawn),18.4 µM,
Cc1nonc1NC(=O)CSc1nc2c(C)cccc2cc1C#N,6.5 µM,
CC(=O)Nc1cc2c3c(cccc3c1)-c1ccccc1-2,2.56 µM,
CCN1CCc2c(sc(NC(=O)c3ccc(S(=O)(=O)N(CC)c4ccccc4)cc3)c2C(N)=O)C1,> 19.5 µM (inactive),
CN(C)c1ccc(/C=C(/C#N)C(=O)NCc2ccccc2)o1,10.3 µM,
CC(NC(=O)/C(C#N)=C/c1ccc([N+](=O)[O-])o1)c1ccccc1 (stereo not drawn),6.75 µM,
CN(C)CCN(Cc1ccc(Cl)cc1)c1ccccn1,> 2.1 µM (inactive),
CCOC(=O)C1=C(O)/C(=C/c2cc(OC)c(O)c(OC)c2)SC1=Nc1ccc(OC)cc1,18.3 µM,
N#C/C(=C\c1ccc(N2CCCCC2)o1)C(=O)Nc1cccc(Br)c1,0.406 µM,
Oc1ccc(/C=N/Nc2ccnc3cc(Cl)ccc23)c(O)c1,> 19.5 µM (inactive),
COc1cc(NS(=O)(=O)c2ccc3ccccc3c2)c2ncccc2c1,> 19.5 µM (inactive),
Cc1ccc(C(=O)c2oc3ccccc3c2NC(=O)c2cc(-c3ccccc3O)n[nH]2)cc1,12.8 µM,
CCOC(=O)/C=c1\s/c(=C\c2ccc3cc(OC)ccc3c2)c(=O)n1CC(=O)NCc1ccc2c(c1)OCO2,7.15 µM,
COc1ccc(NC(=O)Nc2ccc3c(c2)CC(=O)N([C@H](C)CO)C[C@H](C)[C@@H](CN(C)S(=O)(=O)c2ccc(F)cc2)O3)cc1,18.6 µM,
Cc1cccc(NC(=O)/C=C/c2ccc([N+](=O)[O-])s2)c1,1.58 µM,
CC(C)CCN1C(=O)c2cccc3c(N)ccc(c23)C1=O,7.46 µM,
COC1C(CO)OC(n2c3c(Cl)cccc3c3c4c(c5c6cccc(Cl)c6[nH]c5c32)C(=O)NC4=O)C(O)C1O (stereo not drawn),13.8 µM,
CCCCNc1ccc2c3c(cccc13)C(=O)N(CCCC)C2=O,0.927 µM,
COc1cc2c3nnc(-c4ccc(F)cc4)c-3cn(Cc3cccc(C)c3)c2cc1OC,3.74 µM,

SMILES,AC40 [1],AC40
CCN1C(=O)[C@@H]2Cc3c([nH]c4ccccc34)C(c3cc(OC)c(OC)c(OC)c3)N2C1=S (stereo partly drawn),> 19.5 µM (inactive),
CN(C)S(=O)(=O)c1ccc2c(c1)/C(=C/c1cc3c([nH]1)CCCC3)C(=O)N2,1.58 µM,
CN(C)CCCN1C(=O)c2cccc3c([N+](=O)[O-])ccc(c23)C1=O,6.06 µM,
CCN1/C(=C/C=C/c2oc3ccc(-c4ccccc4)cc3[n+]2CC)Oc2ccc(-c3ccccc3)cc21,0.00228 µM,
CCN1/C(=C\c2ccc3cc(C)ccc3[n+]2CC)Sc2cc(C)c(C)cc21,5.57 µM,
O=C(NCc1ccccc1)c1cccc2c1C(=O)c1ccc(/C=C/c3ccccc3)cc1S2(=O)=O,8.5 µM,
COc1ccc2c(n1)Sc1nc3ccccc3nc1N2,13.1 µM,
C[n+]1c2cc(N)ccc2cc2ccc(N)cc21,0.297 µM and 0.116 µM,
C=CCN1C(=O)[C@@H]2Cc3c([nH]c4ccccc34)C(c3cc(OC)c(OC)c(OC)c3)N2C1=S (stereo partly drawn),> 19.5 µM (inactive),
c1ccc(-c2cnn3c(-c4ccccc4)c(-c4ccccc4)nc3n2)cc1,1.8 µM,
COc1cc2c3nnc(-c4ccc(F)cc4)c-3cn(Cc3ccccc3F)c2cc1OC,1.57 µM,
Cc1ccccc1OCC(O)CNC1CCC(NCC(O)COc2ccccc2C)CC1 (stereo not drawn),> 19.5 µM (inactive),
N#Cc1c(-c2ccccc2F)cc(C2CC2)nc1SCC(=O)c1cccs1,7.48 µM,
CC(=O)Nc1sc(/C(C#N)=C/c2ccc(Cl)c(Cl)c2)nc1-c1ccc(C)cc1,1.92 µM,
CN1/C(=C/C=C(C#N)C#N)C(C)(C)c2ccccc21,11.3 µM,
CCOC(=O)/C(=C/C=C1\Sc2cc(C)c(C)cc2N1CC)C(C)=O,16.9 µM,
CC(=O)c1ccc(C(=O)Nc2sc3c(c2C(N)=O)CCN(Cc2ccccc2)C3)cc1,> 19.5 µM (inactive),
Cc1cc(C)cc(NC(=O)/C=C/c2ccc([N+](=O)[O-])s2)c1,1.7 µM,
O=C1c2cccc3c([N+](=O)[O-])ccc(c23)C(=O)N1Cc1cccnc1,10.1 µM,
Nc1c(C(=O)c2cccs2)sc2nsc(SCCN3CCCCC3)c12,2.57 µM,
Cn1cc(/C=C/c2cc[n+](C)cc2)c2cc(Cl)ccc21,> 19.5 µM (inactive),
COc1ccc(NC(=O)CCc2ccccc2)cc1S(=O)(=O)N1CCCCC1,17 µM,
C/C(=N\Nc1ncnc2sc(C)c(C)c12)c1ccccn1,0.784 µM,
Cc1[nH]c2ccccc2c1/C=N/Nc1ccc([N+](=O)[O-])cc1,9.23 µM,
C#Cc1cc(N2CCN(C(=O)c3ccoc3)CC2)n2nc(-c3cccc(Cl)c3)cc2n1,8.99 µM,
Cc1ccc(C(=O)N/C(=C/c2ccc(-c3ccc([N+](=O)[O-])cc3)o2)C(=O)NCCCN(C)C)cc1,4.28 µM,

SMILES,AC40 [1],AC40
CCCN1CCN(C(=O)C2CCN(c3nnc(C)c4c(C)n(-c5ccc(C)cc5)nc34)CC2)CC1,8.7 µM,
CN1CCc2c(sc(NC(=O)c3ccc(S(=O)(=O)N4CCc5ccccc54)cc3)c2C(N)=O)C1,8.93 µM,
Cn1cc(C2=C(c3ccc(Cl)cc3Cl)C(=O)NC2=O)c2ccccc21,6.16 µM,
O=[N+]([O-])c1c(Nc2ccc(O)cc2)cc(Cl)c2nonc12,8.92 µM,
Nc1[nH]c2cc([N+](=O)[O-])ccc2c1-c1ccccn1,4.61 µM,
Cc1cccc2cc3c(N)c(C(=O)N4CCCc5ccccc54)sc3nc12,9.89 µM,
CCc1cccc2cc3c(N)c(C(=O)Nc4ccc(S(=O)(=O)N5CCCC5)cc4)sc3nc12,4.01 µM,
CCOC(=O)Cn1c(=NC(=O)c2ccc([N+](=O)[O-])s2)sc2ccccc21,7.3 µM,
COc1cc(/C=C/C(=O)c2ccc([N+](=O)[O-])o2)ccc1O,10.3 µM,
CC(=O)Oc1cccc(N2C(=O)c3cccc4c([N+](=O)[O-])ccc(c34)C2=O)c1,5.28 µM,
COc1cc(/C=C/c2ccc3cccc(O)c3n2)c(Br)cc1O,14 µM,
CCN1/C(=C/c2ccc3cc(C)cc(C)c3[n+]2CC)Sc2cc(C)ccc21,0.507 µM,
Cc1cc2oc3ccc(NCCCn4ccnc4)cc3c(=O)c2cc1C,11.3 µM,
COc1ccc(Cn2cc3c(-c4ccc(F)cc4)nnc-3c3cc(OC)c(OC)cc32)cc1,4.05 µM,
Nc1c(Br)cc2c3c(cccc13)-c1ccccc1-2,12.6 µM,
CC1=CC(=Cc2sc3ccccc3[n+]2C)C=C(C)O1,,7.67 µM
CCN1/C(=C/c2ccc3cc(C)ccc3[n+]2CC)Sc2cc(C)c(C)cc21,1.29 µM,
O=C(NC1CCCC1)c1cccc2c1C(=O)c1ccc(/C=C/c3ccccc3)cc1S2(=O)=O,5.54 µM,
Cc1cccc(-c2cccc3[nH]c4c(c23)CCN2C(=O)[C@H]3[C@H](C)ON(C)[C@H]3C[C@@H]42)c1,10.8 µM,
Cc1cc(C)c2cc3c(N)c(C(=O)Nc4c(C)[nH]c(=O)[nH]c4=O)sc3nc2c1,19.3 µM,
CCC(CO)[n+]1c(C)cc(/C=C2\Sc3ccccc3N2Cc2ccccc2)cc1C (stereo not drawn),1.55 µM,
Cc1ccc2c(c1)c(/C=C/c1cc[n+](C)cc1)c(C)n2C,2.65 µM,
N=c1ccn2c(n1)OC1C(O)C(CO)OC12 (stereo not drawn),19.1 µM,
N#C/C(=C/c1ccc(N2CCCCC2)o1)C(=O)NCCc1c[nH]c2ccccc12,4.77 µM,
O=S(=O)(Nc1cc(Sc2cccc3cccnc23)c(O)c2ccccc12)c1ccccc1,> 19.5 µM (inactive),
Cc1ccc(NC(=O)/C=C/c2ccc([N+](=O)[O-])s2)cc1,3.11 µM,

SMILES,AC40 [1],AC40
N#C/C(=C/c1ccc(N2CCCCC2)o1)C(=O)Nc1ccc2ccccc2c1,0.297 µM,
Cc1ccc(Cl)c2c(N=Nc3ccccc3)c(O)[nH]c12,7.83 µM,
N#C/C(=C/c1ccc(-c2ccc(S(N)(=O)=O)cc2)o1)c1nc2ccccc2s1,1.17 µM,
O=CNc1ccc2c3c(cccc13)-c1ccccc1-2,5.85 µM,
COc1ccc2nc(C)cc(NCc3ccc(F)cc3)c2c1,4.9 µM,
Cc1ccc(NC(=O)/C=C/c2ccc([N+](=O)[O-])s2)c(C)c1,1.68 µM,
O=[N+]([O-])c1ccc(N2N=C(c3ccccc3)CC2c2ccccc2O)cc1 (stereo not drawn),12.4 µM,
COc1ccc(/C=C/C(=O)c2ccc([N+](=O)[O-])o2)cc1OC,14.3 µM,
CC(=O)[C@@]1(O)Cc2c(O)c3c(c(O)c2[C@H](O[C@H]2C[C@H](N)[C@H](O)[C@H](C)O2)C1)C(=O)c1ccccc1C3=O,1.09 µM,
COc1ccc(NC(=O)C(C)N2C(=O)c3ccccc3C2=O)c(OC)c1 (stereo not drawn),9.06 µM,
Cc1cccc2cc3c(N)c(C(=O)N4CCc5ccccc54)sc3nc12,14.1 µM,
N#C/C(=C/c1ccc(-c2ccccc2)o1)c1nc(-c2cccs2)cs1,5.05 µM,
Cc1ccc2cc3c(N)c(C(=O)Nc4c(C)[nH]c(=O)[nH]c4=O)sc3nc2c1,13.2 µM,
O=[N+]([O-])c1ccc(/C=N/NC(=S)Nc2ccc(Cl)cc2Cl)s1,> 19.5 µM (inactive),
Cc1cc(/C=C2\SC(=S)N(Cc3ccco3)C2=O)c(C)n1-c1ccccc1,> 19.5 µM (inactive),
N#C/C(=C\c1ccc([N+](=O)[O-])o1)c1nc2ccccc2[nH]1,1.26 µM,
CC1=NN(c2nc(N)nc(/C(C#N)=C/c3ccc([N+](=O)[O-])o3)n2)C(C)(C)C1,2.18 µM,
COc1cc2c3nnc(-c4ccccc4)c-3cn(Cc3ccccc3F)c2cc1OC,1.27 µM,
CC(C)N1CCc2c(sc(NC(=O)c3ccc4ccccc4c3)c2C(N)=O)C1,13.3 µM,
CCN1/C(=C/c2ccc3cc(C)ccc3[n+]2CC)Sc2ccccc21,0.228 µM,
O=[N+]([O-])c1ccc(N/N=C/c2ccc[nH]2)cc1,> 19.5 µM (inactive),
O=[N+]([O-])c1ccc(C2=NN(c3ccccc3)C(c3ccco3)C2)cc1 (stereo not drawn),2.25 µM,
CCCN1C(=O)S/C(=C\c2ccc(N3CCOCC3)o2)C1=O,> 19.5 µM (inactive),
COc1ccc(C(=O)c2sc3nc(C)cc(-c4cccs4)c3c2N)cc1OC,> 19.5 µM (inactive),
CC(=NNc1nc2ccccc2o1)c1cc2ccccc2cn1,2.86 µM,
